How the values were obtained:
[1] = system: wild type rice tissue culture seedlings; test: Establishing resistance screening conditions: herbicide concentration inhibiting growth of wild type rice seedlings; type: in vivo; conditions: minimum herbicide concentration inhibiting plant growth, 1/2 MS medium, after 7 days
Procedure: (§1) Herbicides listed in Table 5 were selected, and ½ MS medium containing different concentrations of herbicides was prepared for screening wild type rice and wheat tissue culture seedlings. After 7 days, the minimum herbicide concentrations inhibiting plant growth were selected for subsequent screen of transformed plants.

[2] = system: wild type wheat tissue culture seedlings; test: Establishing resistance screening conditions: herbicide concentration inhibiting growth of wild type wheat seedlings; type: in vivo; conditions: minimum herbicide concentration inhibiting plant growth, 1/2 MS medium, after 7 days
Procedure: as §1

Compound: COc1cc(OC)nc(NC(=O)NS(=O)(=O)c2ncccc2C(=O)N(C)C)n1 [Nicosulfuron]
- Selection concentration for rice (PPM) [1]: 0.012 PPM
- Selection concentration for wheat (PPM) [2]: 0.13 PPM

Compound: CCCCOC(=O)[C@@H](C)Oc1ccc(Oc2ccc(C#N)cc2F)cc1 [cyhalofop-butyl]
- Selection concentration for rice (PPM) [1]: 5.3 PPM

Compound: CCC/C(=N\OCC)C1=C(O)CC(CC(C)SCC)CC1=O (centres unmarked) [sethoxydim]
- Selection concentration for rice (PPM) [1]: 0.33 PPM
- Selection concentration for wheat (PPM) [2]: 0.33 PPM

Compound: COC(=O)[C@@H](C)Oc1ccc(Oc2ncc(C(F)(F)F)cc2Cl)cc1 [Haloxyfop-R-methyl]
- Selection concentration for rice (PPM) [1]: 0.036 PPM
- Selection concentration for wheat (PPM) [2]: 0.036 PPM

Compound: CCOC(=O)[C@@H](C)Oc1ccc(Oc2nc3ccc(Cl)cc3o2)cc1 [fenoxaprop-P-ethyl]
- Selection concentration for rice (PPM) [1]: 4.5 PPM

Reference: US12195741B2, “Creation of herbicide resistant gene and use thereof” (INSTITUTE OF GENETICS AND DEVELOPMENTAL BIOLOGY, CHINESE …, priority 2017, dated 2025)
